In paper PMC5449093, “Selective inhibitors of trypanosomal uridylyl transferase RET1 establish druggability of RNA post-transcriptional modifications” (RNA Biology, 2016):

Tests used:
T. brucei = assay: Treating T. brucei cultures with compounds, cell density counts; type: cell-based, Trypanosoma brucei; details: blood and insect forms; concentrations close to RET1 IC50 values (70μM and 2μM); Fig. S4
Method: Wild type blood form strain of trypanosomes were cultured to densities of 5 × 10^5 cells ml^−1 at 37 °C in HMI-9 medium, 1 % pen/strep, 10 % FCS, Puromycin 0.1 ug ml^−1 , zeocin 1 µg ml^−1. Test compounds in DMSO were added at varying concentrations (DMSO final concentration 1 %). The trypanosomes where then split 1/10 dilution and sub-cultured every 24 h to the same cell density (5 × 10^5 cells ml^−1). At 24 hour intervals, cell density measurements were performed using a hem cytometer. Test concentrations were determined by an initial dose finding experiment and compounds were tested at 0.2, 0.5 and 1 times a fatal dose. This was in the region of the IC50 for both compounds.

CID1 poly (U) polymerase [1] = molecular target: T1, CID1 poly (U) polymerase (Schizosaccharomyces pombe, UniProt O13833); assay: biochemical
T1 construct: purchased NEB M0337S
Method: (§1) Poly (U) polymerase from Schizosaccharomyces pombe, was obtained from NEB (M0337S). […]
(§2) Duplicate reactions were set up with each containing, 0.2 units of Cid1 enzyme, NEB (M0337S) with UTP at final concentration of 18 µM, RNA 3 nM, and buffer 6 up to a final volume of 10 µl. The reaction was done at 37°C for 20 mins, then the enzyme heat inactivated at 65 °C for 10 mins.

CID1 poly (U) polymerase [2] = assay: biochemical; design: species or system Schizosaccharomyces pombe; details: RET1 over CID1, calculated from IC50 values
Method: as §1, §2

RET1 [3] = molecular target: T2, RET1 (Trypanosoma brucei brucei, UniProt Q8WQX5, A749G/DEL18-18/G858D/N24H/V111I/W59S); assay: Luciferase coupled PPi assay, 384 well format, RET1; type: biochemical
T2 construct: Full-length RET1 protein (975aa) was expressed in E. coli as an N-terminal GST-tagged fusion protein; made in house; host or cells: E. coli BL21 (DE3)
Method: Reactions were made up in Corning® 384 Well Low Flange White Flat Bottom Polystyrene TC-Treated Micro plates (Product #3570). RET1 enzyme was added at 0.1 μl (0.2 mgml^−1), UTP (Thermo Scientific R0471 100 mM) and RNA substrate final concentrations were equal to their Km: 50 μM and 20 nM respectively.[18] The volume was made up to 10 μl with buffer 6 (Tris pH 7.5 10 mM, KCl 10 mM, DTT 1 mM, MgCl2 3.2 mM) and the reaction was incubated 20 mins at 25°C, then heat inactivated at 65°C for 10 mins. Test compounds were added in 0.5 μl of DMSO stock solution. The positive control included of 0.5 μl of DMSO. After a 10 min cooling period, 5 μl of each of detection and conversion reagents from PPiLight™ Inorganic Pyrophosphate Assay Kit (Lonza, LT07-610) were added. Luminescence was read with a Pherastar Plus micro plate reader. IC50 determinations were carried out in triplicate using the luciferase assay protocol in a dilution series of 1 mM to 99 nM.

RET1 [4] = molecular target: T2, RET1; assay: Gel based assay for RET1 uridylylation activity (Sybr Gold); type: biochemical; details: for Inhibition of RET1 uridylation of RNA, gel verification: inhibitor 50 µM, Fig. 3; for Gel Assay (qualitative activity in gel based assay): qualitative class: inactive, moderate or strong inhibitor, inhibitor 50 µM per method
Method: Individual reactions were made up in 0.2 ml PCR tubes (Peqlab 820264-A). RET1 enzyme (see SI text) was added (0.05 μl, 0.2 mg ml^−1), UTP (Thermo Scientific R0471 100 mM) was added to a final concentration of 50 μM. RNA substrate (see SI text) was added to a final concentration of 200 nM. Inhibitors were added as required (0.5 μl in DMSO) to a final concentration of 50 μM. When no inhibitor was included 5 % (vol/vol) DMSO was added as control. The volume was made up to 10 μl in buffer D (Tris pH 7.5 10 mM, KCl 200 mM, DTT 1 mM, EDTA 0.5 mM MgCl2 3.2 mM) and the reaction was incubated for 20 mins at 27°C, then inactivated at 65°C for 10 mins. RNA loading dye (10 μl, NEB B363A) was added and tubes were heated (5 mins at 70°C), 10 μl was loaded onto 15 % TBE urea pre-cast gel (Invitrogen EC68852) and run in 1 x TBE buffer for 1.5 h at 130 V. Gels were incubated with Sybr Gold nucleic acid stain (Life Technologies S11494) for 20 mins, then imaged on an ultraviolet trans-illuminator (BioDoc-It imaging system, UVP). Experiments were carried out in duplicate for each inhibitor.

PC12 cells = system: PC12 cells; design: method as in PMID 9256496; details: concentrations of 10 μM; cited from earlier work
[5] = RET1 IC50, PPi assay 384-well follow-up, UTP 50 µM, RNA 20 nM
[6] = RET1 Inhibition IC50, selectivity experiment, Table 2

O=C(Nc1ccc(S(=O)(=O)N2CCOCC2)cc1)c1cc(Cl)ccc1NS(=O)(=O)c1ccc(Cl)s1 [Compound 1, Ataciguat]
Toxicity to trypanosomes in culture (T. brucei): toxic to both blood and insect forms
IC50 (CID1 poly (U) polymerase [1]): 4800 µM
RET1 Selectivity (fold) (CID1 poly (U) polymerase [2]): 66 fold
IC50 (RET1 [3]; [5]): 70 µM
IC50 (RET1 [3]; [6]): 73 µM
Inhibition of RET1 uridylation of RNA, gel verification (RET1 [4]): effectively inhibit
Gel Assay (qualitative activity in gel based assay) (RET1 [4]): Strong

O=C(c1cc(O)c(O)c(O)c1)c1ccc(O)c(O)c1O [Compound 2, exifone]
Toxicity to trypanosomes in culture (T. brucei): toxic to both blood and insect forms
IC50 (CID1 poly (U) polymerase [1]): 88 µM
RET1 Selectivity (fold) (CID1 poly (U) polymerase [2]): 43 fold
IC50 (RET1 [3]; [5]): 2 µM
IC50 (RET1 [3]; [6]): 2 µM
Toxicity to PC12 cells (PC12 cells): not toxic
Inhibition of RET1 uridylation of RNA, gel verification (RET1 [4]): effectively inhibit
Gel Assay (qualitative activity in gel based assay) (RET1 [4]): Strong
